In PubChem BioAssay AID2060502 (Molecular Pharmacology Branch, DTP, NCI, 2025):
pIC50: −log10 of the molar value.

System: 885724-159-R-J1-PDC complex spheroid viability
Assay: Anticancer human tumor 885724-159-R-J1-PDC patient-derived pancreatic adenocarcinoma cell line growth inhibition [GQUAD]
Conditions: for pIC50: curve of first compound; for viability, T/C: stronger effect = lower value
Excerpt: DNA G-quadruplex Stabilizer Agents in Combinations in Complex Spheroids
A high-throughput screen of multi-cell type tumor spheroids was designed to identify active combinations of DNA G-quadruplex stabilizer agents and targeted small molecules. Complex spheroids include a stromal component modeled by human endothelial cells (HUVEC) and fibroblasts modeled by human mesenchymal stem cells (MSCs). The concentration ranges selected for each drug and investigational agent were based upon clinically achievable concentrations if the clinical Cmax of the agent was known.
Compounds. The drugs and investigational agents: pidnarulex (CX-5461; NSC782164), APTO-253 (NSC789042), BRACO-19 (NSC847499), peposertib (NSC802822), ceralasertib (NSC780249), elimusertib (NSC800525), camonsertib (NSC841442), AZD-1390 (NSC803789), olaparib (NSC753686), talazoparib (NSC767125), ART-558 (NSC835418), sotorasib (NSC818433), MRTX-1133 (NSC836407), SN-38 (NSC673596), topotecan (NSC609699), etoposide (NSC141540), doxorubicin (NSC123127), gemcitabine (NSC613327), 5-fluorouracil (NSC19893), paclitaxel (NSC125973), vemurafenib (NSC761431), panobinostat (NSC761190), R-306465 (JNJ-16241199; NSC773264), adavosertib (NSC754352), TP-3654 (NSC805149), carboplatin (NSC241240), KSQ-4279 (NSC840948), and staurosporine (NSC755774) were obtained from the National Cancer Institute (NCI) Developmental Therapeutics Program Chemical Repository (34). The FDA-approved anticancer drug set is available from the NCI Developmental Therapeutics Program. […] The stock solutions were prepared in dimethyl sulfoxide (DMSO, Sigma-Aldrich, St. Louis, MO, cat. D2650) at 800-fold the tested concentration and stored at -70 degrees C prior to their use. All drugs and investigational agents were tested over a range starting from a high concentration at or near the clinical Cmax and decreasing in half-log increments. If the clinical Cmax for an agent had not been determined, the highest concentration tested was 10 microM.
2.3 Cell Culture. All cells were maintained in an incubator at 37 degrees C and 5% CO2 with 95% humidity. The PDC lines were cultured according to standard operating procedures established by the NCI PDMR. All PDCs were thawed and cultured in Matrigel-coated flasks prepared with a working solution of 1X Ham's F-12 nutrient mix, without supplementation (Invitrogen, cat. 11765054), 100 U/mL penicillin-streptomycin (Invitrogen, cat. 15140122), and 2.5% Matrigel (Corning Inc., cat. 354248) for the first three passages. The 857933-349-R-J2-PDC line was cultured in 6C/Colon 1B media, which includes advanced DMEM/F-12 (Thermo Fisher Scientific, cat. 12634028), 10 mM HEPES (Thermo Fisher Scientific, cat. 15630080), 1X GlutaMAX supplement (Thermo Fisher Scientific, cat. 35050061), 0.1 mg/mL primocin (InvivoGen, cat. ant-pm-2), 10% defined fetal bovine serum, heat inactivated (HyClone Laboratories Inc., cat. SH30070.03HI), 50% L-WRN conditioned media (ATCC, cat. CRL-3276), 1.25 mM N-Acetyl-L-cysteine (Sigma-Aldrich, cat. A9165), 10 mM nicotinamide (Sigma-Aldrich, cat. N0636), 1X B-27 supplement (Thermo Fisher Scientific, cat. 17504044), 1X N-2 supplement (Thermo Fisher Scientific, cat. 17502048), 10 microM Y-27632 dihydrochloride (Tocris Bioscience, cat. 1254), and 50 ng/mL human EGF recombinant protein (Thermo Fisher Scientific, cat. PHG0311). The 485176-168-R4-J1-PDC line was cultured in Panc media, which includes all 6C/Colon 1B media components plus 100 ng/mL human FGF-10 (Thermo Fisher Scientific, cat. 100-26), 500 nM SB-431542 (Selleckchem, cat. S1067), and gastrin (Tocris, cat. 3006).
[…]
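Note: spheroids exposed to agents for seven days before readout.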
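Throughout, for viability, T/C: percent of vehicle control viability where 100% = DMSO wells.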

Structure (SMILES): COc1ccc([C@@H](O)c2cc(-c3ncnc4cc(N5CCOCC5)ccc34)c(F)cc2Cl)nn1 + Cc1[nH]c2ccc(F)cc2c1-c1nc2c3cccnc3c3ncccc3c2[nH]1
- pIC50 (second compound 0.0316 µM): 5.16
- pIC50 (second compound 0.1 µM): 5.27
- pIC50 (second compound 0.316 µM): 5.28
- pIC50 (second compound 1 µM): 5.48
- pIC50 (second compound 3.16 µM): > 7.50
- pIC50 (second compound 10 µM): 5.45
- viability, T/C (second compound 0.0316 µM, first compound 0.0316 µM): 101%
- viability, T/C (second compound 0.0316 µM, first compound 0.1 µM): 110%
- viability, T/C (second compound 0.0316 µM, first compound 0.316 µM): 108%
- viability, T/C (second compound 0.0316 µM, first compound 1 µM): 94%
- viability, T/C (second compound 0.0316 µM, first compound 3.16 µM): 68.5%
- viability, T/C (second compound 0.0316 µM, first compound 10 µM): 41.2%
- viability, T/C (second compound 0.1 µM, first compound 0.0316 µM): 99%
- viability, T/C (second compound 0.1 µM, first compound 0.1 µM): 97%
- viability, T/C (second compound 0.1 µM, first compound 0.316 µM): 90.5%
- viability, T/C (second compound 0.1 µM, first compound 1 µM): 82.3%
- viability, T/C (second compound 0.1 µM, first compound 3.16 µM): 57.7%
- viability, T/C (second compound 0.1 µM, first compound 10 µM): 40.5%
- viability, T/C (second compound 0.316 µM, first compound 0.0316 µM): 92%
- viability, T/C (second compound 0.316 µM, first compound 0.1 µM): 97.8%
- viability, T/C (second compound 0.316 µM, first compound 0.316 µM): 83.6%
- viability, T/C (second compound 0.316 µM, first compound 1 µM): 65.7%
- viability, T/C (second compound 0.316 µM, first compound 3.16 µM): 66.5%
- viability, T/C (second compound 0.316 µM, first compound 10 µM): 36.2%
- viability, T/C (second compound 1 µM, first compound 0.0316 µM): 76.1%
- viability, T/C (second compound 1 µM, first compound 0.1 µM): 71.1%
- viability, T/C (second compound 1 µM, first compound 0.316 µM): 82.8%
- viability, T/C (second compound 1 µM, first compound 1 µM): 68.5%
- viability, T/C (second compound 1 µM, first compound 3.16 µM): 51%
- viability, T/C (second compound 1 µM, first compound 10 µM): 34.3%
- viability, T/C (second compound 3.16 µM, first compound 0.0316 µM): 47.5%
- viability, T/C (second compound 3.16 µM, first compound 0.1 µM): 46.3%
- viability, T/C (second compound 3.16 µM, first compound 0.316 µM): 51.2%
- viability, T/C (second compound 3.16 µM, first compound 1 µM): 39.5%
- viability, T/C (second compound 3.16 µM, first compound 3.16 µM): 33.7%
- viability, T/C (second compound 3.16 µM, first compound 10 µM): 28.3%
- viability, T/C (second compound 10 µM, first compound 0.0316 µM): 72.4%
- viability, T/C (second compound 10 µM, first compound 0.1 µM): 75.6%
- viability, T/C (second compound 10 µM, first compound 0.316 µM): 62.6%
- viability, T/C (second compound 10 µM, first compound 1 µM): 63.4%
- viability, T/C (second compound 10 µM, first compound 3.16 µM): 52.9%
- viability, T/C (second compound 10 µM, first compound 10 µM): 32.8%
